The subject of assay [1] is Microglia. Description: Cell viability of LPS-stimulated rat cortical microglial cells after 48 hrs by MTT assay. It is filed as functional, cell-based. A general note: Tetrazolium dyes change colour on reduction, which living cells bring about.
Assay [2] deals with Microglia. Description: Cell viability of rat cortical microglial cells after 48 hrs by MTT assay. It is filed as functional, cell-based.
The nature of assay [3]: Inhibition of LPS-stimulated NO release in rat cortical microglial cells assessed as nitrite accumulation at 1 ug/ml after 48 hrs relative to LPS. The class given is functional. The conditions noted are these: Microglia, values are per cent of control.
Assay [4] can be described thus: Inhibition of LPS-stimulated NO release in rat cortical microglial cells assessed as nitrite accumulation at 10 ug/ml after 48 hrs relative to LPS. It is filed as functional. The note with it: Microglia, values are per cent of control.
Assay [5] is described as follows: Inhibition of LPS-stimulated NO release in rat cortical microglial cells assessed as nitrite accumulation after 48 hrs. It is filed as functional. The conditions noted are these: Microglia.
Assay [6] in a line: Inhibition of LPS-stimulated NO release in rat cortical microglial cells assessed as nitrite accumulation at 100 ug/ml after 48 hrs relative to LPS. The class given is functional. The note with it: Microglia, values are per cent of control.
Assay [7] can be described thus: Inhibition of LPS-stimulated NO release in rat cortical microglial cells assessed as nitrite accumulation at 3 uM after 48 hrs relative to LPS. The class given is functional. The note with it: Microglia, values are per cent of control.
Assay [8] is described as follows: Inhibition of NO release in LPS-stimulated rat cortical microglial cells assessed as nitrite accumulation at 30 uM after 48 hrs relative to LPS. The class given is functional. The conditions noted are these: Microglia, values are per cent of control.

Active and inactive are the calls of the source. The calls are words filed in the database; no cut-off is given here. A value given as a limit tells only on which side of the number the result lay.

The IC50 is the concentration that inhibits the measured activity by half. Regarding `C=C[C@@H]1CN2CC[C@@]3(C(=O)Nc4ccccc43)[C@@H]2C[C@@H]1/C(=C\OC)C(=O)O`, the outcome with Microglia [1] and in the assay with Microglia [2] was inactive. Besides, the response, % of control at 1 µg/mL in assay [3] came to 98.8%. Further, the response, % of control at 10 µg/mL in assay [4] came out at 107%. In assay [5], the IC50 is over 100 µM. Besides, in assay [6], the response, % of control at 100 µg/mL was 92.7%.
Regarding `CC[C@H]1CN2CC[C@@]3(C(=O)Nc4ccccc43)[C@@H]2C[C@@H]1/C(=C\OC)C(=O)OC` [ISORHYNCHOPHYLLINE], the outcome with Microglia [1] and in the assay on Microglia [2] was inactive. For the same compound, in assay [3], the response, % of control at 1 µg/mL turned out to be 95.2%. Besides, in assay [4], the response, % of control at 10 µg/mL stood at 76.9%. The IC50 in assay [5] was determined as 19 µM. In assay [6], the response, % of control at 100 µg/mL came out at 42.1%.
For `C=C[C@@H]1CN2CC[C@]3(C(=O)Nc4ccccc43)[C@@H]2C[C@@H]1/C(=C\OC)C(=O)O` [18,19-DEHYDROCORYNOXINIC ACID B], the result in the assay on Microglia [1] and in the assay with Microglia [2] was inactive. The response, % of control at 1 µg/mL in assay [3] came out at 81.9%. In assay [4], the response, % of control at 10 µg/mL was 84.2%. For the same compound, in assay [5], the IC50 was over 100 µM. Also, in assay [6], the response, % of control at 100 µg/mL was 88.9%.
As for `C=C[C@H]1C(O[C@@H]2O[C@H](CO)[C@@H](O)[C@H](O)[C@H]2O)OC=C2C(=O)N3CCc4c([nH]c5ccccc45)[C@@H]3C[C@H]21` (stereo partly specified) [VINCOSIDE LACTAM], the outcome in the assay on Microglia [1] and in the assay on Microglia [2] was inactive. Moreover, in assay [3], the response, % of control at 1 µg/mL came out at 71.8%. Also, the response, % of control at 10 µg/mL in assay [4] was 65.7%. Besides, in assay [5], the IC50 was determined as 16.4 µM. Also, in assay [6], the response, % of control at 100 µg/mL amounted to 38.6%.
Take `C=C[C@H]1CN2CC[C@]3(C(=O)Nc4ccccc43)[C@@H]2C[C@@H]1/C(=C\OC)C(=O)OC` [CORYNOXEINE]: the result in the assay on Microglia [1] and with Microglia [2] was inactive. In assay [3], the response, % of control at 1 µg/mL was 86.9%. In addition, the response, % of control at 10 µg/mL in assay [4] is 74.5%. Further, in assay [5], the IC50 turned out to be 15.7 µM. The response, % of control at 100 µg/mL in assay [6] was determined as 37.9%.
Turning to `Oc1ccc(/C=C/c2cc(O)cc(O)c2)cc1` [RESVERATROL], the response, % of control at 10 µg/mL in assay [4] came out at 72.4%. In addition, the IC50 in assay [5] was determined as 11.5 µM. The response, % of control at 3 µM in assay [7] worked out at 92%. In addition, the response, % of control at 30 µM in assay [8] was 43.4%.
On to `C=C[C@H]1CN2CC[C@@]3(C(=O)Nc4ccccc43)[C@@H]2C[C@@H]1/C(=C\OC)C(=O)OC` [ISOCORYNOXEINE], for which the outcome in the assay on Microglia [1] and in the assay with Microglia [2] was inactive. Also, the response, % of control at 1 µg/mL in assay [3] amounted to 92.2%. Besides, the response, % of control at 10 µg/mL in assay [4] amounted to 73.2%. In addition, the IC50 in assay [5] amounted to 13.7 µM. Besides, the response, % of control at 100 µg/mL in assay [6] is 40.5%.
Take `CC[C@H]1CN2CC[C@]3(C(=O)Nc4ccccc43)[C@@H]2C[C@@H]1/C(=C\OC)C(=O)OC` [RHYNCHOPHYLLINE]: the result in the assay with Microglia [1] and with Microglia [2] was inactive. The response, % of control at 1 µg/mL in assay [3] is 106%. Moreover, the response, % of control at 10 µg/mL in assay [4] amounted to 75.8%. In assay [5], the half-maximal inhibitory concentration (IC50) turned out to be 18.5 µM. Further, the response, % of control at 100 µg/mL in assay [6] worked out at 35.9%.
